Here are results for 4 compounds from ChEMBL document CHEMBL1921753, “Semisynthesis and biological evaluation of ganodermanontriol and its stereoisomeric triols” (J Nat Prod, 2011).

What all share (format): functional, cell-based
Test [1] deals with MDA-MB-231. Put plainly: Antiproliferative activity against human MDA-MB-231 cells after 24 to 72 hrs by MTT assay. On the technique in general: Tetrazolium dyes change colour on reduction, which living cells bring about.
Test [2] concerns MCF7. The experiment in a line: Antiproliferative activity against human MCF7 cells after 24 to 72 hrs by MTT assay.
In test [3] the test system is MDA-MB-231. The experiment in a line: Antiproliferative activity against human MDA-MB-231 cells after 72 hrs by MTT assay. As to conditions: MDA-MB-231, 72 h.
In test [4] the test system is MCF7. The experiment in a line: Antiproliferative activity against human MCF7 cells after 72 hrs by MTT assay. As to conditions: MCF7, 72 h.

One may read the IC50 as the concentration that gives 50% inhibition. Read a high IC50 as weaker potency in that assay. `C[C@H](CC[C@@H](O)[C@@](C)(O)CO)[C@H]1CC[C@@]2(C)C3=CC[C@H]4C(C)(C)C(=O)CC[C@]4(C)C3=CC[C@]12C`: the IC50 in the test on MDA-MB-231 [1] came to 33.8 µM; in the test with MCF7 [2], 24.1 µM.

As for `C[C@H](CC[C@H](O)[C@@](C)(O)CO)[C@H]1CC[C@@]2(C)C3=CC[C@H]4C(C)(C)C(=O)CC[C@]4(C)C3=CC[C@]12C`, the IC50 in the test on MDA-MB-231 [1] was 36.7 µM; in the test with MCF7 [2] it was 16.3 µM.

With `C[C@H](CC[C@@H](O)[C@](C)(O)CO)[C@H]1CC[C@@]2(C)C3=CC[C@H]4C(C)(C)C(=O)CC[C@]4(C)C3=CC[C@]12C`, the IC50 came to 11.3 µM with MDA-MB-231 [1] and 24.1 µM in the test on MCF7 [2].

Take `C[C@H](CC[C@H](O)[C@](C)(O)CO)[C@H]1CC[C@@]2(C)C3=CC[C@H]4C(C)(C)C(=O)CC[C@]4(C)C3=CC[C@]12C` [GANODERMANONTRIOL]: the IC50 in the test on MDA-MB-231 [3] is 9.7 µM; in the test on MCF7 [4], 5.8 µM.
